# Measured values from US8426447B2, “Spiro-tricyclic ring compounds as beta-secretase modulators and methods of use” (Amgen Inc., priority 2008, dated 2013).
# Assays:
# BACE1 [1] = molecular target: T1, BACE1 (Homo sapiens, UniProt P56817); test: In Vitro BACE Cell-based Assay (HEK cell assay): Aβ40 in conditioned medium of cells stably expressing Amyloid Precursor Protein, sandwich ELISA
# Procedure, shortened: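 Read-out is time-resolved fluorescence of Aβ40 in supernatant, captured by pAb40 and detected with biotinylated 6E10 plus Streptavidin-Europium. Cells stably expressing APP received compounds for 24 h over 10 concentrations starting at 100 μM or 10 μM, final DMSO 0.1%.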
# BACE1 [2] = molecular target: T1, BACE1; test: In Vitro Enzymatic BACE FRET (Fluorescence Resonance Energy Transfer) Assay; type: biochemical
# Procedure, shortened: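 Fluorescence read-out after Tris addition raises pH to neutrality and ends the reaction. Before that, a peptide substrate carrying fluorophore and quencher across the BACE cleavage site (50 nM) is incubated with enzyme for one hour at pH 4.2 in acetate containing 10% DMSO and sub-micellar genapol.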
# [3] = Table III, IC50's in uM ranges, read-out: HEK cell assay
# [4] = Table III, IC50's in uM ranges, read-out: BACE1 FRET assay
# [5] = HEK cells, read-out: HEK cell assay
# [6] = HEK cell-based assay, Aβ40 in conditioned medium, IC50 class symbols, read-out: HEK cell assay
# [7] = in vitro BACE FRET enzyme assay, IC50 class symbols, read-out: BACE1 FRET assay
# [8] = Table IV, class symbols, read-out: HEK cell assay
# [9] = Table IV, class symbols, read-out: BACE1 FRET assay
# T1 sequence (P56817 46-501, species assumed): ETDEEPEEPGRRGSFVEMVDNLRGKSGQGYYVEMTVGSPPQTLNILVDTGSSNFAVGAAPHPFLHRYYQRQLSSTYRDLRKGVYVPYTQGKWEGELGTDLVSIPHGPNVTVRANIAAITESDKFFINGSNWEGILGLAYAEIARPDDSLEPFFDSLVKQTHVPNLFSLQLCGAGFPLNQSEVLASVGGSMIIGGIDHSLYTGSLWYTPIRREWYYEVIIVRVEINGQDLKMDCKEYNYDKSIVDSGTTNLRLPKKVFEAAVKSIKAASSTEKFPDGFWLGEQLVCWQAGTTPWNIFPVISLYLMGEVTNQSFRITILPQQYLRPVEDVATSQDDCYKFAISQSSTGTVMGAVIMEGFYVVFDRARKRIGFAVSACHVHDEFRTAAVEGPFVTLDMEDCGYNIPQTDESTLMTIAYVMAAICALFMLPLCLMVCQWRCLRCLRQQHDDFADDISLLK
structure (smiles),measurement,setting,value
CC(C)(O)C#Cc1ccc2c(c1)C1(COC(N)=N1)c1cc(C#CC(C)(C)O)ccc1O2 [compound 118],IC50,BACE1 [1]; [3],1 to 5 µM
same,IC50,BACE1 [2]; [4],1 to 5 µM
NC1=N[C@@]2(CO1)c1cc(-c3cccnc3)ccc1Oc1cnc(N)cc12 [compound 446],IC50,BACE1 [1]; [5],0.1 to 1 µM
same,IC50,BACE1 [2]; read-out: BACE1 FRET assay,0.1 to 1 µM
"NC1=N[C@]2(CO1)c1cc(OCC3CCCC3)ccc1Oc1ccc(-c3cncnc3)cc12 [Example 74, (4S)-2′-(cyclopentylmethoxy)-7′-(5-pyrimidinyl)spiro[1,3-oxazole-4,9′-xanthen]-2-amine]",IC50,"BACE1 [1]; Table II, Aβ40, 24 h incubation, read-out: HEK cell assay",< 0.1 µM
same,IC50,"BACE1 [2]; Table II, read-out: BACE1 FRET assay",< 0.1 µM
Cn1cc(-c2cccc(-c3ccc4c(c3)[C@@]3(COC(N)=N3)c3cc(-c5cnn(C)c5)ncc3O4)c2)cn1 [compound 328],IC50,BACE1 [1]; [6],0.1 to 1 µM
same,IC50,BACE1 [2]; [7],< 0.1 µM
"NC1=N[C@]2(CO1)c1cc(-c3cccnc3)ccc1Oc1ccc(-c3cncnc3)cc12 [Example 124, (R)-2′-(pyridin-3-yl)-7′-(pyrimidin-5-yl)-5H-spiro[oxazole-4,9′-xanthen]-2-amine]",IC50,BACE1 [1]; [3],< 0.1 µM
same,IC50,BACE1 [2]; [4],< 0.1 µM
CC(C)(O)COc1ccc2c(c1)[C@]1(COC(N)=N1)c1cc(-c3cncc(F)c3)ccc1O2 [compound 224],IC50,BACE1 [1]; [3],< 0.1 µM
same,IC50,BACE1 [2]; [4],< 0.1 µM
"CC(C)(C)C#Cc1ccc2c(c1)[C@]1(COC(N)=N1)c1cc(Oc3ccccn3)ccc1O2 [Example 112, (4R)-2′-(3,3-dimethyl-1-butyn-1-yl)-7′-(2-pyridinyloxy)spiro[1,3-oxazole-4,9′-xanthen]-2-amine]",IC50,BACE1 [1]; [3],0.1 to 1 µM
same,IC50,BACE1 [2]; [4],< 0.1 µM
NC1=N[C@@]2(CO1)c1cc(-c3cccnc3F)ccc1Oc1ccc([C@H]3CCCCO3)cc12 [compound 365],IC50,BACE1 [1]; [6],< 0.1 µM
same,IC50,BACE1 [2]; [7],< 0.1 µM
CC(C)(C)COc1ccc2c(c1)[C@]1(COC(N)=N1)c1cc(-c3ccc(S(C)(=O)=O)cc3)ccc1O2 [compound 910],IC50,BACE1 [1]; [8],1 to 5 µM
same,IC50,BACE1 [2]; [9],1 to 5 µM
CC(C)(F)COc1ccc2c(c1)[C@]1(COC=N1)c1cc(Br)c(N)nc1O2 [compound 171],IC50,BACE1 [1]; [3],1 to 5 µM
same,IC50,BACE1 [2]; [4],0.1 to 1 µM
NC1=N[C@@]2(CO1)c1cc(-c3cccnc3N3CCOCC3)ccc1Oc1ccc(N3CCOCC3)cc12 [compound 391],IC50,BACE1 [1]; [6],1 to 5 µM
same,IC50,BACE1 [2]; [7],0.1 to 1 µM
NC1=N[C@@]2(CO1)c1cc(-c3ccc4nccn4c3)ccc1Oc1ncccc12 [compound 572],IC50,BACE1 [1]; [8],1 to 5 µM
same,IC50,BACE1 [2]; [9],> 5 µM
NC1=N[C@]2(CO1)c1cc(C#CC3CCCCC3)ccc1Oc1ccc(-c3cncnc3)cc12 [compound 138],IC50,BACE1 [1]; [3],0.1 to 1 µM
same,IC50,BACE1 [2]; [4],< 0.1 µM
CC(C)(C)COc1ccc2c(c1)[C@]1(COC(N)=N1)c1cc(N3CCCC3)ccc1O2 [compound 815],IC50,BACE1 [1]; [8],1 to 5 µM
same,IC50,BACE1 [2]; [9],0.1 to 1 µM
NC1=N[C@]2(CO1)c1cc(/C=C/C(=O)O)ccc1Oc1ccc(-c3cncnc3)cc12 [compound 948],IC50,BACE1 [1]; read-out: HEK cell assay,> 5 µM
same,IC50,BACE1 [2]; read-out: BACE1 FRET assay,0.1 to 1 µM
Cn1cncc1-c1ccc2c(c1)[C@]1(COC(N)=N1)c1cc(OCC(C)(C)C)ccc1O2 [compound 187],IC50,BACE1 [1]; [3],1 to 5 µM
same,IC50,BACE1 [2]; [4],1 to 5 µM
CC(C)(C)COc1ccc2c(c1)[C@]1(COC(N)=N1)c1cc(C3CC3(C)C)ccc1O2 (some centres unmarked) [compound 754],IC50,BACE1 [1]; read-out: HEK cell assay,0.1 to 1 µM
same,IC50,BACE1 [2]; read-out: BACE1 FRET assay,< 0.1 µM
NC1=N[C@@]2(CO1)c1cc(-c3ccc(F)nc3)ccc1Oc1cnc(-c3ccc(F)nc3)cc12 [compound 433],IC50,BACE1 [1]; [5],0.1 to 1 µM
same,IC50,BACE1 [2]; read-out: BACE1 FRET assay,< 0.1 µM
"NC1=N[C@@]2(CO1)c1cc(-c3cccnc3F)ccc1Oc1cnc(-c3ccncc3)cc12 [Example 515, (5S)-7-(2-fluoro-3-pyridinyl)-3-(4-pyridinyl)spiro[chromeno[2,3-c]pyridine-5,4′-[1,3]oxazol]-2′-amine]",IC50,"BACE1 [1]; HEK cell assay (uM), HEK cells",< 0.1 µM
same,IC50,BACE1 [2]; BACE1 FRET assay (uM),< 0.1 µM
NC1=N[C@@]2(CO1)c1cc(-c3cccnc3)ccc1Oc1ccc(-c3cscn3)cc12 [compound 671],IC50,BACE1 [1]; read-out: HEK cell assay,< 0.1 µM
same,IC50,BACE1 [2]; read-out: BACE1 FRET assay,< 0.1 µM
NC1=N[C@]2(CO1)c1ccccc1Oc1cc(F)c(-c3cccnc3)cc12 [compound 569],IC50,BACE1 [1]; [8],0.1 to 1 µM
same,IC50,BACE1 [2]; [9],0.1 to 1 µM
"COc1ccc(F)c(-c2ccc3c(c2)C2(COC(N)=N2)c2ccc(C)cc2O3)c1 (centres unmarked) [Example 19, 2′-(2-fluoro-5-methoxyphenyl)-6′-methylspiro[1,3-oxazole-4,9′-xanthen]-2-amine]",IC50,"BACE1 [1]; Table 1, Aβ40, 24 h incubation, read-out: HEK cell assay",0.1 to 1 µM
same,IC50,"BACE1 [2]; Table 1, read-out: BACE1 FRET assay",1 to 5 µM
NC1=N[C@@]2(CO1)c1cc(-c3cc(Cl)ccc3F)ccc1Oc1ncc(N3CCOCC3)cc12 [compound 457],IC50,BACE1 [1]; [5],< 0.1 µM
same,IC50,BACE1 [2]; read-out: BACE1 FRET assay,< 0.1 µM
NC1=N[C@]2(CO1)c1cc(C3=CCOCC3)ccc1Oc1cc(F)c(-c3cccnc3)cc12 [compound 492],IC50,BACE1 [1]; [5],< 0.1 µM
same,IC50,BACE1 [2]; read-out: BACE1 FRET assay,< 0.1 µM
CCCOc1cc2c(cc1F)Oc1ccc(-c3cccnc3)cc1[C@@]21COC(N)=N1 [compound 938],IC50,BACE1 [1]; read-out: HEK cell assay,< 0.1 µM
same,IC50,BACE1 [2]; read-out: BACE1 FRET assay,< 0.1 µM
